In patent publication US20130261045A1, “GREEN TEA POLYPHENOL ALPHA SECRETASE ENHANCERS AND METHODS OF USE” (UNIVERSITY OF SOUTH FLORIDA, priority 2005, published 2013):
Peptide text beside a SMILES is read from it. * marks the point of attachment. Cbz = O=C(OCc1ccccc1)*

What was measured:
Format in all cases: cell-based, murine
APP cleavage processing = assay: Western blot/immunoprecipitation of APP cleavage (CTFs, sAPP-α, holo APP) in APP-transfected N2a cells; conditions: for α-CTF production: at the high dose; for α-CTF generation and α-CTF to β-CTF ratio: 80 μM; for effect on the action of EGCG on α-CTF cleavage: GC or C 80 μM with EGCG, FIG. 2F
Method: Cell cultured supernatants were collected and cell lysates were prepared from these cultured cells.
Cultured cells and mouse brain were lysed in ice-cold lysis buffer described above, and an aliquot corresponding to 50 μg of total protein was electrophoretically separated using 16.5% Tris-tricine gels. Electrophoresed proteins were then transferred to PVDF membranes (Bio-Rad), washed in dH2O, and blocked for 1 hour at ambient temperature in Tris-buffered saline (TBS; Bio-Rad) containing 5% (w/v) for non-fat dry milk. After blocking, membranes were hybridized for 1 hour at ambient temperature with various antibodies, including against the C- (369), N-terminus of APP (22C11), the N-terminus of Aβ (6E10), and ADAM10 and TACE (Calbiochem). Membranes were then washed 3× for 5 min each in dH2O and incubated for 1 hour at ambient temperature with the appropriate HRP-conjugated secondary antibody (1:1,000, Pierce Biotechnology, Inc. Rockford, Ill.). All antibodies were diluted in TBS containing 5% (w/v) of non-fat dry milk. Blots were developed using the luminal reagent (Pierce Biotechnology). Densitometric analysis was done using the Fluor-S Multimager™ with Quantity One™ software (Bio-Rad). Immunoprecipitation was performed for detection of sAPP-α, sAPP-β and Aβ by incubating 200 μg of total protein of each sample with 6E10 (1:100; Signet) or 22C11 (1:100; Roche, Basel, Switzerland) overnight with gentle rocking at 4° C., and 10 μL of 50% protein A-Sepharose beads were then added to the sample (1:10; Sigma) prior to gentle rocking for an additional 4 hours at 4° C. Following washes with 1× cell lysis buffer, samples were subjected to Western blot as described above. Antibodies used for Western blot included antibody 369 (1:1,000), anti-C-terminal APP antibody (1:500; Chemicon, Temecula, Calif.), BAM-10 (1:1,000; Sigma), 6E10 (1:1,000; Signet) or anti-Actin antibody (1:1,500; as an internal reference control; Roche). α-, β- and γ-secretase activities were quantified in cell lysates and mouse brain homogenates using available kits based on secretase-specific peptides conjugated to fluorogenic receptor molecules (R&D Systems, Minneapolis, Minn.).

Aβ generation = assay: Aβ ELISA, conditioned media of APP-transfected N2a cells (Example 1); conditions: co-treatment with EGCG 20 μM, GC or C 80 μM, 12 hours; SweAPP N2a cells
Method: Aβ1-40 and 1-42 peptides were analyzed in the conditioned media from SweAPP N2a cells (FIGS. 1A, 1C, 1D) and transgenic APPsw mouse-derived primary neuronal cells (FIG. 1B) by ELISA (n=3 for each condition).
TAPI-1, β and γ-secretase inhibitors were obtained from Calbiochem (San Diego, Calif.). Green tea extract (75% polyphenols) was obtained from the Vitamin Shoppe™ (North Bergen, N.J.).
Cultured cells were lysed in ice-cold-lysis buffer (20 mM Tris, pH 7.5, 150 mM NaCl, 1 mM EDTA, 1 mM EGTA, 1% v/v Triton X-100, 2.5 mM sodium pyropgosphate, 1 mM β-glycerolphosphate, 1 mM Na3VO4, 1 μg/mL leupeptin, 1 mM PMSF) as previously described (Tan et al., 2002). Mouse brains were isolated under sterile conditions on ice and placed in ice-cold lysis buffer. Brains were then sonicated on ice for approximately 3 min, allowed to stand for 15 min at 4° C., and centrifuged at 15,000 rpm for 15 min. Total Aβ1-42 species were detected by acid extraction of brain homogenates in 5 M guanidine buffer (ret), followed by a 1:10 dilution in lysis buffer. Soluble Aβ1-42 was directly detected in cultured cell lysates or brain homogenates prepared with lysis buffer described above by a 1:4 or 1:10 dilution, respectively. Aβ1-42 was quantified in these samples using the Aβ1-42 ELISA kit (BioSource, Camarillo, Calif.) in accordance with the manufacturer's instructions, except that standards included a 0.5 M guanidine buffer.
In order to examine the effects of green tea's components on APP cleavage processing, for a first step, N2a neuroblastoma cells overproducing Aβ were treated with each of the aforementioned components at a wide range of doses. In addition, doses of (+)-catechin hydrate (CH) and gallic acid monohydrate (GAM) were included in the first step.

α-secretase = α-secretase cleavage activity kit, lysates of APP-transfected N2a cells; conditions: TAPI-1 25 μM with EGCG 20 μM, 4 hours; FIGS. 3d and e
[1] = 0.5 μM to 1.5 μM, SweAPP N2a cells, data not shown

| Molecule | α-CTF production (APP cleavage processing) | effect on the ability of EGCG to reduce Aβ production (Aβ generation) | α-CTF generation and α-CTF to β-CTF ratio (APP cleavage processing) | effect on the action of EGCG on α-CTF cleavage (APP cleavage processing) | also measured |
| --- | --- | --- | --- | --- | --- |
| Oc1cc(O)c2c(c1)O[C@@H](c1ccc(O)c(O)c1)[C@@H](O)C2 [(+) EC, (+)-epicatechin] | increases |  |  |  |  |
| Oc1cc(O)c2c(c1)O[C@H](c1ccc(O)c(O)c1)[C@H](O)C2 [(−) EC, (−)-epicatechin] | increases |  |  |  |  |
| Oc1cc(O)c2c(c1)O[C@H](c1cc(O)c(O)c(O)c1)[C@@H](O)C2 [GC, (−)-gallocatechin] |  | markedly inhibits the ability of EGCG to reduce Aβ production | decreased | significantly opposes |  |
| CC(C)C[C@H](CC(=O)NO)C(=O)N[C@@H](Cc1ccc2ccccc2c1)C(=O)N[C@@H](C)C(=O)NCCN [TAPI-1, reference compound] |  |  |  |  | effect on EGCG promotion of APP α-secretase cleavage (α-secretase): significantly attenuated |
| CC(C)C[C@@H](C=O)NC(=O)[C@H](CC(C)C)NC(=O)[C@@H](NC(=O)OCc1ccccc1)C(C)C [β-secretase inhibitor II, reference compound] (Cbz-Val-Leu-Leu-aldehyde) |  |  |  |  | sAPP-α levels compared with EGCG (APP cleavage processing; [1]): failed to produce the same increased α-CTF and sAPP-α levels as EGCG; α-CTF levels compared with EGCG (APP cleavage processing; [1]): failed to produce the same increased α-CTF and sAPP-α levels as EGCG |
| (−)-catechin |  | markedly inhibits the ability of EGCG to reduce Aβ production | decreased | significantly opposes |  |
